What all share (format): cell-based
Assay [1] relates to SPI1 type III protein secretion system (SipB secretion). Description: Secondary assay: Type III-dependent protein secretion of the SipB polypeptide by S. enterica (immunoblot). Particulars: Salmonella enterica, read-out: SipB IC50(uM). Summed up: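 S. enterica cultured with or without inhibitor and induced for SipB production; after growth, cells pelleted and secreted SipB in supernatant measured by immunoblot with anti-SipB mouse monoclonal plus HRP anti-mouse and chemiluminescence, quantified by scanning imager. Inhibition expressed relative to untreated controls.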

Assay [2] concerns type III protein secretion system of P. aeruginosa PA103 (ExoU secretion). Description: Tertiary assay: Type III-dependent secretion of ExoU by P. aeruginosa PA103 (SDS-PAGE band quantitation). The note with it: Pseudomonas aeruginosa, ExoU secreted into extracellular medium. From the text:
Tertiary assay: inhibition of Type III protein secretion of effectors from a Pseudomonas aeruginosa system. Type III protein secretion is used by P. aeruginosa to secrete several essential virulence determinants. One effector of the type III protein secretion system of P. aeruginosa PA103 is the virulence determinants ExoU.
The amount of Type III-dependent secretion of ExoU by P. aeruginosa PA103 can be determined in a cell-based assay by quantification of the 73.9 kDa ExoU protein secreted into the extracellular medium. Such quantitation can be achieved by growing strain PA103 in a deferrated medium in the presence of nitrilotriacetic acid (an inducer of Type III protein secretion in P. aeruginosa) and either in the presence or absence of putative inhibitors. After a prolonged growth period, the cells are sedimented and the supernatants concentrated by ammonium sulfate precipitation. The proteins in the resuspended pellets are separated by electrophoresis on SDS-polyacrylamide gels. After staining gels with Colloidal Blue™, the 73.9 kDa ExoU band is quantitated by scanning through an imager. The effects of inhibitors on the intensity of the ExoU band may be measured relative to that of untreated controls.

Assay [3] relates to SPI1 type III protein secretion system (SopE-Bla secretion). Description: Primary assay: Type III protein secretion of the chimeric SopE-Bla polypeptide by Salmonella enterica (nitrocefin hydrolysis). Particulars: read-out: SopE IC50(uM). Summed up:
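Salmonella enterica grown under SPI1-favouring conditions, induced to express SopE–TEM-1 β-lactamase chimera, cultured with or without compound for a set time.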

Bounds are passed on as bounds.

One may read the IC50 as the concentration needed to halve the response being measured. With `CN(C)c1ccc(-c2cc(NC(=O)c3ccc(Oc4ccccc4)cc3)c(=O)n(C(Cc3ccc(Cl)cc3)C(=O)O)c2)cc1` (stereo not drawn) [Compound 53, 3-(4-Chlorophenyl)-2-[5-(4-dimethylaminophenyl)-2-oxo-3-(4-phenoxy-benzoylamino)-2H-pyridin-1-yl]propionic acid], the IC50 in assay [1] is over 100 µM; in assay [2], 49 µM; in assay [3], 3.6 µM.

The values are drawn from US7087622B2, “Pyridone compounds as inhibitors of bacterial type III protein secreation systems” (priority 2004, dated 2006).
